Series [1] can be described thus: Tmax in rat. It counts as ADME, organism-based. Particulars: in vivo.
Series [2] is described as follows: Clearance in rat. Type of series: ADME, organism-based. As to conditions: in vivo.
A short description of series [3]: Oral bioavailability in rat at 6.8 umol/kg. Type of series: ADME, organism-based. Particulars: in vivo.
Series [4] is described as follows: Lipophilicity, log D of the compound at pH 7.4. As to conditions: buffer.
Series [5] concerns the target T1, Carboxypeptidase N catalytic chain (Homo sapiens, UniProt P15169).
T1 sequence (P15169 whole entry): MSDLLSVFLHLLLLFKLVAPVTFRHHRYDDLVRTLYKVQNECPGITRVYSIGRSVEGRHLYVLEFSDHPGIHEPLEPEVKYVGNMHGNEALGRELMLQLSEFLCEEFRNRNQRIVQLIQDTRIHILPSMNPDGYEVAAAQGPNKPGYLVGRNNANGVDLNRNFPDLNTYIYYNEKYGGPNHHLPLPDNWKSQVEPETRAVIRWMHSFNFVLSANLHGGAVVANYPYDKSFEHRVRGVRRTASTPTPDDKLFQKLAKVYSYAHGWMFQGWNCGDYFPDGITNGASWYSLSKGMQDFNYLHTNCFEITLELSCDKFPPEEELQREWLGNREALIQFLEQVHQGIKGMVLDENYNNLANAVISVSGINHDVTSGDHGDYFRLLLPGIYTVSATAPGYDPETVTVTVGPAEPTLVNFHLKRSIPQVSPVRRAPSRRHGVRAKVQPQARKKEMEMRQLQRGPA
Description: Inhibition of carboxypeptidase N (unknown origin).

Series [6] can be described thus: Oral bioavailability in rat at 20 umol/kg. Particulars: in vivo. It counts as ADME, organism-based.
For series [7], the target named is T2, Carboxypeptidase B2 (Homo sapiens, UniProt Q96IY4).
T2 sequence (Q96IY4 whole entry): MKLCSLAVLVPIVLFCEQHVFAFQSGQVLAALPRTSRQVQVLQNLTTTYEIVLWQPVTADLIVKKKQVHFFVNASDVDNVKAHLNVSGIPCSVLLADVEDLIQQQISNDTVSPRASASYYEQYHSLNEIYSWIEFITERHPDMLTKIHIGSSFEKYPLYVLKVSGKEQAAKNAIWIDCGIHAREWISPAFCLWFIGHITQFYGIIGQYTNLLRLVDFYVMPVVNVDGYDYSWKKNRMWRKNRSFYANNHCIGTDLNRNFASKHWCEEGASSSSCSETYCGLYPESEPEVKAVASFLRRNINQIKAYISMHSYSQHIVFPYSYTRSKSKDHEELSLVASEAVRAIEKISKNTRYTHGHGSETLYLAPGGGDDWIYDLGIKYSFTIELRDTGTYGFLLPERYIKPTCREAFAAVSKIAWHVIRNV
Description: Inhibition of […] in human plasma assessed as clot lysis.

Series [8] has as its target T2, Carboxypeptidase B2. Description: Inhibition of human TAF1a.
Series [9] is described as follows: Oral bioavailability in rat. Type of series: ADME, organism-based. As to conditions: in vivo.
Series [10] addresses Phosphodiesterase 4 (Homo sapiens) (UniProt P27815+Q08499+Q07343+Q08493). Kind of series: Inhibition of PDE4 (unknown origin) at 10 uM. Type of series: protein assay.
Series [11] is described as follows: Clearance in dog. It counts as ADME, organism-based, Canis lupus familiaris. As to conditions: in vivo.
Series [12] concerns the target T2, Carboxypeptidase B2. Description: Inhibition of human […] using hippuryl-L-arginine/hippuryl-L-lysine as substrate by liquid chromatographic analysis.

Consider `CCCn1cnc2c1CC[C@@](CCCN)(C(=O)O)C2`, for which the time to peak (Tmax) in series [1] is 12 min. For the same compound, in [2], the clearance turned out to be 6 mL/min/kg. The bioavailability is 8% in series [3] and 2% in series [6]. In addition, the log distribution coefficient (logD) in series [4] is under 0. Moreover, the IC50 in [5] was over 1000 µM.
For the compound `NCCCC1(C(=O)O)CCc2c(ncn2-c2ccccc2)C1` (racemic), the figures for the IC50 (at Carboxypeptidase B2 [7]; against Carboxypeptidase B2 [8]; in series [5]) were 7.1 µM, 0.585 µM and over 1000 µM, respectively.
In turn, `NCCC[C@@]1(C(=O)O)CCn2c(-c3ccccc3)cnc2C1` gave a bioavailability in series [9] of 4.9%. For the same compound, the clearance in series [2] stood at 12 mL/min/kg. The results for the half-inhibitory concentration (IC50) (at Carboxypeptidase B2 [7]; on Carboxypeptidase B2 [8]; in series [5]) were 1.3 µM, 0.066 µM and over 1000 µM, respectively. Also, in series [4], the logD was under 0. Besides, in [10], the inhibition turned out to be 79%.
In the case of `NCCC[C@@]1(C(=O)O)CCc2c(ncn2C2CCCCC2)C1`, in series [9], the bioavailability stood at 1.4%. Moreover, the values for the clearance in series [2] and in series [11] were 6.2 mL/min/kg and 3.5 mL/min/kg, respectively. Moreover, the IC50 at Carboxypeptidase B2 [7] was 0.08 µM; at Carboxypeptidase B2 [8] it was 0.117 µM; in series [5], over 1000 µM. The compound also showed a pH-dependent lipophilicity (logD) in series [4] of under 0. The compound also gave an inhibition in [10] of 79%.
`CCCn1cnc(CC(NCCN)C(=O)O)c1` (stereo not drawn): the IC50 against Carboxypeptidase B2 [12] is 0.62 µM; on Carboxypeptidase B2 [7], 8 µM.
With `CCCn1cnc(C[C@H](CCCN)C(=O)O)c1` [UK-396,082], in series [1], the Tmax is 60 min. In series [2], this compound had a clearance of 2 mL/min/kg. In addition, the IC50 against Carboxypeptidase B2 [12] was 0.45 µM; at Carboxypeptidase B2 [7], 5 µM. Further, the bioavailability in series [6] amounted to 8%.
For the compound `CC(C)CCn1cnc2c1CC[C@@](CCCN)(C(=O)O)C2.Cl`, the bioavailability in series [9] came out at 1.4%. Moreover, the IC50 on Carboxypeptidase B2 [7] was 0.1 µM; against Carboxypeptidase B2 [8], under 0.041 µM; in [5], over 1000 µM. Further, the log distribution coefficient (logD) in [4] was under 0.
The compound `NCCC[C@@]1(C(=O)O)CCc2c(ncn2Cc2cccc(-c3ccccc3)c2)C1` registered a bioavailability in [9] of 1.7%. The half-inhibitory concentration (IC50) is 2.5 µM on Carboxypeptidase B2 [7], 0.106 µM on Carboxypeptidase B2 [8] and over 1000 µM in series [5]. The same compound registered a logD in series [4] of 1.
Consider `CCc1cnc2n1CCC(CCCN)(C(=O)O)C2` (racemic), for which the results for the IC50 (on Carboxypeptidase B2 [7]; against Carboxypeptidase B2 [8]; in series [5]) were over 100 µM, 2.27 µM and over 1000 µM, respectively.
Regarding `Cl.NCCC[C@@]1(C(=O)O)CCn2c(-c3cccc(-c4ccc(Cl)cc4Cl)c3)cnc2C1`, in [9], the bioavailability was determined as 0.9%. In addition, the IC50 at Carboxypeptidase B2 [7] is 3.2 µM; against Carboxypeptidase B2 [8] it was under 0.041 µM; in [5], over 1000 µM. Besides, in series [4], the logD turned out to be 2.4.
As for `C[C@@H](S)[C@@H](Cc1ccc(N)nc1)C(=O)O`, the bioavailability in series [9] came to 75%. The Tmax in series [1] was 30 min. Also, the clearance in series [2] was 27 mL/min/kg. The IC50 against Carboxypeptidase B2 [12] worked out at 0.087 µM; on Carboxypeptidase B2 [7] it was 0.4 µM.
Take `NCCCC1(C(=O)O)CCc2c(ncn2CCC2CCC(C3CCCCC3)CC2)C1` (racemic): the results for the IC50 (at Carboxypeptidase B2 [7]; at Carboxypeptidase B2 [8]; in series [5]) were 16 µM, 0.124 µM and over 1000 µM, respectively. In addition, in series [4], the logD turned out to be 3.6.
